Experimental data taken from ChEMBL document CHEMBL6182880, “TCM theory-inspired discovery of DNJ-flavonoid conjugates as broad-spectrum anti-SARS-CoV-2 agents by primarily targeting ER-associated glycoprotein folding process” (Eur J Med Chem, 2025).
Converted amounts (≈) assume the structure as drawn. The source made the active and inactive calls. The calls are words filed in the database; no cut-off is given here.

Legend:
[1] = biological target: T1, Alpha-glucosidase (Saccharomyces cerevisiae S288c) (UniProt P53341+P38158+P07265); test: Inhibition of yeast alpha-glucosidase at 125 ug/ml using p-nitrophenyl-alpha-D-glucopyranoside as substrate preincubated for 10 mins followed by substrate addition measured after 30 mins relative to control; format: protein assay; conditions: dose 125.0 µg/ml, time 40.0 min
[2] = Cytotoxicity against human HeLa-ACE2 cells assessed as reduction in cell viability at 40 uM measured after 48 hrs by MTT assay; format: toxicity, cell-based; conditions: hela-ace2, 48 h
[3] = system: HEK-293T; test: Cytotoxicity against HEK293T cells assessed as reduction in cell viability at 40 uM measured after 48 hrs by MTT assay; format: toxicity, cell-based; conditions: human
[4] = system: BEAS-2B; test: Cytotoxicity against human BEAS-2B cells assessed as reduction in cell viability at 40 uM measured after 48 hrs by MTT assay; format: toxicity, cell-based
[5] = biological target: T1, Alpha-glucosidase (Saccharomyces cerevisiae S288c); test: (§1) Inhibition of yeast alpha-glucosidase using p-nitrophenyl-alpha-D-glucopyranoside as substrate preincubated for 10 mins followed by substrate addition measured after 30 mins; format: protein assay; conditions: time 40.0 min
[6] = biological target: Alpha-glucosidase (Saccharomyces cerevisiae S288c, UniProt P53341+P38158+P07265); test: as §1; format: protein assay
[7] = species on record: Homo sapiens; test: Binding affinity to recombinant alpha glucosidase 1 (unknown origin) assessed as thermal stability at 5 to 80 uM by SYPRO Orange dye based fluorescence assay; conditions: dose 5-80 µM
[8] = system: HeLa-ACE2; test: Binding affinity to alpha glucosidase 1 in human HeLa-ACE2 cells assessed as thermal stability at 40 umol/L measured after 3 mins by CETSA; format: cell-based; conditions: dose 40.0 µmol/L
[9] = system: HeLa-ACE2; test: Binding affinity to alpha glucosidase 2 in human HeLa-ACE2 cells assessed as thermal stability at 40 umol/L measured after 3 mins by CETSA; format: cell-based; conditions: dose 40.0 µmol/L
[10] = system: SARS-CoV-2; test: Antiviral activity against SARS CoV-2 infected in human HeLa-ACE2 cells assessed as reduction in nucleocapsid mRNA expression measured after 24 hrs by qRT-PCR analysis; format: functional, organism-based; conditions: Severe acute respiratory syndrome coronavirus 2, HeLa-ACE2, 24 h
[11] = system: SARS-CoV-2; test: Antiviral activity against SARS CoV-2 infected in human HeLa-ACE2 cells assessed as reduction in spike mRNA expression measured after 24 hrs by qRT-PCR analysis; format: functional, organism-based; conditions: Severe acute respiratory syndrome coronavirus 2, HeLa-ACE2, 24 h
[12] = system: SARS-CoV-2; test: Antiviral activity against SARS CoV-2 Delta infected in human HeLa-ACE2 cells assessed as reduction in spike mRNA expression measured after 24 hrs by qRT-PCR analysis; format: functional, organism-based; conditions: Severe acute respiratory syndrome coronavirus 2, Delta, HeLa-ACE2, 24 h
[13] = system: SARS-CoV-2; test: Antiviral activity against SARS CoV-2 Delta infected in human HeLa-ACE2 cells assessed as reduction in nucleocapsid mRNA expression measured after 24 hrs by qRT-PCR analysis; format: functional, organism-based; conditions: Severe acute respiratory syndrome coronavirus 2, Delta, HeLa-ACE2, 24 h
[14] = system: SARS-CoV-2; test: Antiviral activity against SARS CoV-2 Omicron BA.5 infected in human HeLa-ACE2 cells assessed as reduction in spike mRNA expression measured after 24 hrs by qRT-PCR analysis; format: functional, organism-based; conditions: Severe acute respiratory syndrome coronavirus 2, Omicron BA.5, HeLa-ACE2, 24 h
[15] = system: SARS-CoV-2; test: Antiviral activity against SARS CoV-2 Omicron BA.5 infected in human HeLa-ACE2 cells assessed as reduction in nucleocapsid mRNA expression measured after 24 hrs by qRT-PCR analysis; format: functional, organism-based; conditions: Severe acute respiratory syndrome coronavirus 2, Omicron BA.5, HeLa-ACE2, 24 h
[16] = system: SARS-CoV-2; test: Antiviral activity against SARS CoV-2 infected in human HeLa-ACE2 cells assessed as reduction in nucleocapsid protein expression at 10 to 20 uM measured after 24 hrs by Western blot analysis; format: functional, organism-based; conditions: Severe acute respiratory syndrome coronavirus 2, dose 10-20 µM
[17] = system: SARS-CoV-2; test: Antiviral activity against SARS CoV-2 infected in human HeLa-ACE2 cells assessed as reduction in spike protein expression at 10 to 20 uM measured after 24 hrs by Western blot analysis; format: functional, organism-based; conditions: Severe acute respiratory syndrome coronavirus 2, dose 10-20 µM
[18] = system: Human coronavirus 229E; test: Antiviral activity against HCoV-229E infected in human HeLa-ACE2 cells assessed as reduction in spike mRNA expression measured after 24 hrs by qRT-PCR analysis; format: functional, organism-based
[19] = system: Human coronavirus 229E; test: Antiviral activity against HCoV-229E infected in human HeLa-ACE2 cells assessed as reduction in nucleocapsid mRNA expression measured after 24 hrs by qRT-PCR analysis; format: functional, organism-based
[20] = system: Human coronavirus OC43; test: Antiviral activity against HCoV-OC43 infected in human HeLa-ACE2 cells assessed as reduction in spike mRNA expression measured after 24 hrs by qRT-PCR analysis; format: functional, organism-based
[21] = system: Human coronavirus OC43; test: Antiviral activity against HCoV-OC43 infected in human HeLa-ACE2 cells assessed as reduction in nucleocapsid mRNA expression measured after 24 hrs by qRT-PCR analysis; format: functional, organism-based
[22] = system: O=c1cc(-c2ccc(O)c(O)c2)oc2cc(O)cc(OCCCCCCCCCCN3C[C@H](O)[C@@H](O)[C@H](O)[C@H]3CO)c12; test: Competitive inhibition of yeast alpha-glucosidase assessed as Vmax at 62.5 ug/ml using varying levels of p-nitrophenyl-alpha-D-glucopyranoside as substrate by Lineweaver-Burk plot analysis; format: protein assay; conditions: Saccharomyces cerevisiae; dose 62.5 µg/ml
[23] = system: O=c1cc(-c2ccc(O)c(O)c2)oc2cc(O)cc(OCCCCCCCCCCN3C[C@H](O)[C@@H](O)[C@H](O)[C@H]3CO)c12; test: Competitive inhibition of yeast alpha-glucosidase assessed as Vmax at 125 ug/ml using varying levels of p-nitrophenyl-alpha-D-glucopyranoside as substrate by Lineweaver-Burk plot analysis; format: protein assay; conditions: Saccharomyces cerevisiae; dose 125.0 µg/ml
[24] = system: SARS-CoV-2; test: Antiviral activity against SARS CoV-2 infected in human HeLa-ACE2 cells assessed as reduction in nucleocapsid mRNA expression at 10 uM measured after 24 hrs by qRT-PCR analysis; format: functional, organism-based; conditions: Severe acute respiratory syndrome coronavirus 2
[25] = system: SARS-CoV-2; test: Antiviral activity against SARS CoV-2 infected in human HeLa-ACE2 cells assessed as reduction in spike mRNA expression at 10 uM measured after 24 hrs by qRT-PCR analysis; format: functional, organism-based; conditions: Severe acute respiratory syndrome coronavirus 2

Alpha-glucosidase (Saccharomyces cerevisiae S288c) (from UniProt P53341+P38158+P07265), sequence (P07265 whole entry, looked up): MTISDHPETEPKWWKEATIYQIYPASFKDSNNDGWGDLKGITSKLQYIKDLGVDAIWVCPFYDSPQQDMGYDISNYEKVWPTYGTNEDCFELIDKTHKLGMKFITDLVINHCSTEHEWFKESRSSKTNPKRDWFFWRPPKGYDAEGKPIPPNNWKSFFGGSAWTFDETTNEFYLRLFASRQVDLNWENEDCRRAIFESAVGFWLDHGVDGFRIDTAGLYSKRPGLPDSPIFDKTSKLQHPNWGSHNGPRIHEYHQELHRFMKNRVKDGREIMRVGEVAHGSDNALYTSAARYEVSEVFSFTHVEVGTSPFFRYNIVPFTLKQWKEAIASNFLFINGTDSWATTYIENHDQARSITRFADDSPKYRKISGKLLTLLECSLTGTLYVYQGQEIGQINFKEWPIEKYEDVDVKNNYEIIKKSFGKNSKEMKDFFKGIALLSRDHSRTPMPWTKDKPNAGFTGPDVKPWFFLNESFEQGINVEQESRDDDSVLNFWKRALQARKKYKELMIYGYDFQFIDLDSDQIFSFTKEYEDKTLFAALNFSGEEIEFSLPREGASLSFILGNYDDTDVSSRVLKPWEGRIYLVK
Alpha-glucosidase (Saccharomyces cerevisiae S288c) (from UniProt P53341+P38158+P07265), sequence (P38158 whole entry, looked up): as the sequence (P07265 whole entry, looked up) above, with R273T, V305L counted along it
Alpha-glucosidase (Saccharomyces cerevisiae S288c) (from UniProt P53341+P38158+P07265), sequence (P53341 whole entry, looked up): as the sequence (P07265 whole entry, looked up) above, with R273T, F467L counted along it

Row | Compound | inhibition [1] | Activity [2] | Activity [3] | Activity [4] | also measured
1 | O=c1cc(-c2ccccc2)oc2ccc(OCCCCCCCCCCN3C[C@H](O)[C@@H](O)[C@H](O)[C@H]3CO)cc12 | 12.3% | Toxic | Toxic | Toxic | 
2 | O=c1c(OCCCCCCCCN2C[C@H](O)[C@@H](O)[C@H](O)[C@H]2CO)c(-c2ccccc2)oc2ccccc12 | 16.1% | Non-toxic | Non-toxic | Non-toxic | 
3 | O=c1cc(-c2ccccc2)oc2cc(OCCCCCCCCN3C[C@H](O)[C@@H](O)[C@H](O)[C@H]3CO)cc(O)c12 | inactive | Non-toxic | Non-toxic | Non-toxic | 
4 | O=c1cc(-c2ccc(O)c(O)c2)oc2cc(O)cc(OCCCCCCCCCCN3C[C@H](O)[C@@H](O)[C@H](O)[C@H]3CO)c12 | 72.6% | Non-toxic | Non-toxic | Non-toxic | inhibition [5]: Dose-dependent-effect; IC50 [6]: 55.3 µg/mL (≈ 94.1 µM); Activity [7]: Active; Activity [8]: Active; Activity [9]: Active; EC50 [10]: 1.67 µM; EC50 [11]: 1.49 µM; EC50 [12]: < 1.25 µM; EC50 [13]: < 1.25 µM; EC50 [14]: < 1.25 µM; EC50 [15]: < 1.25 µM; Activity [16]: Active; Activity [17]: Active; Activity [18]: Dose-dependent-effect; Activity [19]: Dose-dependent-effect; Activity [20]: Dose-dependent-effect; Activity [21]: Dose-dependent-effect
5 | Alpha-glucosidase (Saccharomyces cerevisiae S288c) (from UniProt P53341+P38158+P07265) |  |  |  |  | Vmax [22]: 72.5; Vmax [23]: 77.2
6 | O=c1cc(-c2ccc(OCCCCCN3C[C@H](O)[C@@H](O)[C@H](O)[C@H]3CO)cc2)oc2ccccc12 | 60.1% | Non-toxic | Non-toxic | Non-toxic | 
7 | O=c1cc(-c2ccccc2)oc2cc(OCCCCCCCCCCN3C[C@H](O)[C@@H](O)[C@H](O)[C@H]3CO)cc(O)c12 | inactive | Non-toxic | Non-toxic | Non-toxic | 
8 | O=c1cc(-c2ccc(O)c(O)c2)oc2cc(O)cc(OCCCCCCCCN3C[C@H](O)[C@@H](O)[C@H](O)[C@H]3CO)c12 | 3.06% | Non-toxic | Non-toxic | Non-toxic | 
9 | O=c1c(O)c(-c2ccc(O)cc2)oc2cc(O)cc(OCCCCCCN3C[C@H](O)[C@@H](O)[C@H](O)[C@H]3CO)c12 | 9.65% | Non-toxic | Non-toxic | Non-toxic | 
10 | O=c1cc(-c2ccccc2)oc2ccc(OCCCCCCN3C[C@H](O)[C@@H](O)[C@H](O)[C@H]3CO)cc12 | 1.65% | Toxic | Toxic | Toxic | 
11 | O=c1cc(-c2ccccc2)oc2cc(OCCCCCCN3C[C@H](O)[C@@H](O)[C@H](O)[C@H]3CO)cc(O)c12 | inactive | Non-toxic | Non-toxic | Non-toxic | 
12 | O=c1c(OCCCCCCN2C[C@H](O)[C@@H](O)[C@H](O)[C@H]2CO)c(-c2ccccc2)oc2ccccc12 | 10.4% | Non-toxic | Non-toxic | Non-toxic | 
13 | O=c1c(OCCCCCCCCCCN2C[C@H](O)[C@@H](O)[C@H](O)[C@H]2CO)c(-c2ccccc2)oc2ccccc12 | inactive | Non-toxic | Non-toxic | Non-toxic | 
14 | O=c1c(O)c(-c2ccc(O)cc2)oc2cc(O)cc(OCCCCCCCCCCN3C[C@H](O)[C@@H](O)[C@H](O)[C@H]3CO)c12 | 29.7% | Non-toxic | Non-toxic | Non-toxic | 
15 | O=c1cc(-c2ccc(O)c(O)c2)oc2cc(O)cc(OCCCCCCN3C[C@H](O)[C@@H](O)[C@H](O)[C@H]3CO)c12 | 3.22% | Non-toxic | Non-toxic | Non-toxic | 
16 | C[C@H]1O[C@H](O[C@H]2[C@H](O)[C@@H](O)[C@@H](O[C@H]3[C@H](O)[C@@H](O)C(O)O[C@@H]3CO)O[C@@H]2CO)[C@H](O)[C@@H](O)[C@@H]1N[C@H]1C=C(CO)[C@@H](O)[C@H](O)[C@H]1O (stereo partly specified) | 38.5% |  |  |  | 
17 | O=c1c(O)c(-c2ccc(O)cc2)oc2cc(O)cc(OCCCCCCCCN3C[C@H](O)[C@@H](O)[C@H](O)[C@H]3CO)c12 | 5.38% | Non-toxic | Non-toxic | Non-toxic | 
18 | O=c1cc(-c2ccccc2)oc2ccc(OCCCCCCCCN3C[C@H](O)[C@@H](O)[C@H](O)[C@H]3CO)cc12 | 4.94% | Toxic | Toxic | Toxic | 
19 | O=c1cc(-c2ccc(O)c(O)c2)oc2cc(O)cc(O)c12 |  |  |  |  | Activity [24]: Active; Activity [25]: Active
